# Test results as given in article PMC6882468 (Journal of Enzyme Inhibition and Medicinal Chemistry, 2019).
# Assays:
# p38α MAPK = p38α MAPK (Homo sapiens, UniProt Q16539); test: p38α MAPK inhibition assay in vitro; assay type: biochemical; details: triplicate, read-out: IC50 p38p
# Procedure: In brief, after mixing the enzyme reagent with the sample, a reaction mixture containing 200 µM biotin-peptide substrate and 600 µM ATP (+100 µCi/mL γ-^32 P-ATP) was added to initiate the reaction. […] Part of the reaction solution was transferred to the well of a streptavidin-coated flash plate, washed in PBS containing 0.01% Tween and sealed. The average value of counts per minute for each group and the IC50 value was calculated.
# The average fluorescence values of each well were calculated and recorded as RFU (Relative Fluorescence Unit) blank control (RFU blank), RFU 100% enzyme activity control (RFU enzyme), RFU positive drug control (RFU drug) and RFU test compound (RFU compound). The inhibition rate is calculated according to the following formula. Inhibition rate (%)= (RFU (enzyme) – RFU (compound/drug) […]) /(RFU (enzyme) – RFU (blank)) * 100%
# The IC50 value of the test compound was calculated by the concentration-inhibition reaction curve and the assays were performed in triplicate.
# COX-1 = molecular target: T1, COX-1 (Ovis aries, UniProt P05979); test: COX-1 inhibition assay in vitro (COX Inhibitor Screening Kit, fluorometric); assay type: biochemical
# T1 construct: purchased BioVision, Inc
# T1 sequence (P05979 25-600): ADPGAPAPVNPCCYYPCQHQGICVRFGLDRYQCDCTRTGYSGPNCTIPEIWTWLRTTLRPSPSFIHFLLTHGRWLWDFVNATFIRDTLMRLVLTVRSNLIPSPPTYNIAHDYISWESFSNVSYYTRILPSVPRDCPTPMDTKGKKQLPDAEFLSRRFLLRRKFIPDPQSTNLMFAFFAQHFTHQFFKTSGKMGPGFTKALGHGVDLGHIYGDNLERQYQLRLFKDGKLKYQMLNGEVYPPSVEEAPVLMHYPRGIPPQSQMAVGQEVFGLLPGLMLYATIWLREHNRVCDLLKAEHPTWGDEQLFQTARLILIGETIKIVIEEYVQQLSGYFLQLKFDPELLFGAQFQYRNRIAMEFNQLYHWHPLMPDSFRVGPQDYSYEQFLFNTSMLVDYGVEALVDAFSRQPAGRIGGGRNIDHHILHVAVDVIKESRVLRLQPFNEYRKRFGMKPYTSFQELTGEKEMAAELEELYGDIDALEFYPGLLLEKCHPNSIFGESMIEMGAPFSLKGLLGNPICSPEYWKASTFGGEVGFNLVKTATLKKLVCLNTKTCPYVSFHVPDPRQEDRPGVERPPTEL
# Procedure: Simply, different concentrations of the test compound solution were added to the mixed solution containing COX-1/COX-2 enzyme (10 µL) and Assay Buffer (960 µL, 0.1 M Tris-HCl pH 8.0 containing 5 µM EDTA and 2 µM phenol). […] The IC50 values were calculated as described above.
# RAW 264.7 cells = test: Cell viability assay (MTT); assay type: cell-based, Murine; details: RAW264.7 cells, concentrations ranging from 5 to 50 µM, 24 h
# Procedure: Murine RAW 264.7 macrophages were obtained from the American Type Culture Collection (ATCC, USA). The cells were incubated in DMEM media supplemented with 10% FBS, 100 U/mL penicillin and […] streptomycin at 37 °C with 5% CO2. Cell viability was assessed using the MTT assay. RAW 264.7 cells were inoculated in 96-well plate at a density of 1.0 × 10^5 cells per well. After incubated for 24 h, the cells were treated with various concentrations of the compound. After an additional 24-h incubation, 20 µL of 0.5 mg/mL MTT reagent was added to wells and incubated for another 4 h. After 4 h, cell culture media was removed and DMOS was added into each well, and then, the optical density was measured at 570 nm. The IC50 values were determined by GraphPad Prism 6.
# [1] = tested on: NO production in RAW 264.7 macrophages; test: Measurement of LPS-induced NO production (Griess); assay type: cell-based, Murine; details: RAW264.7, 2 h pre-treatment (0–20 µM), LPS 200 ng/mL 24 h
# Procedure: Murine RAW 264.7 macrophages were obtained from the American Type Culture Collection (ATCC, USA). The cells were incubated in DMEM media supplemented with 10% FBS, 100 U/mL penicillin and […] streptomycin at 37 °C with 5% CO2. The RAW 264.7 macrophages were inoculated at 96-well plates and were pre-treated with vehicle or 6n (0–20 µM dose range) for 2 h and then stimulated with LPS (200 ng/mL) for 24 h. NO concentration in the medium was determined using Griess reagent kit (Beyotime, China) at 540 nm with a microplate reader (MQX200, Bio-Tek, USA) and calculated the inhibition rate of NO.
# [2] = tested on: iNOS expression in RAW264.7 cells; test: Western blot of LPS-induced iNOS expression; assay type: cell-based, Murine; details: RAW264.7, LPS 200 ng/mL 24 h
# Procedure: (§1) The cell in 96-well plates were treated as described above and then stimulated with LPS (200 ng/mL) for 24 h. The cells were harvested and lysed in an extraction lysis buffer (Beyotime Biotechnology, Shanghai, China) containing protease inhibitors. The protein concentration was determined using a BCA protein assay kit (Thermo Scientific, 23227). The whole cell lysates were separated by 10% sodium dodecyl sulphate-polyacrylamide gel electrophoresis and transferred to a nitrocellulose membrane. Each membrane was incubated with Tris-buffered saline (pH 7.6, containing 0.05% Tween-20 and 5% non-fat milk). The nitrocellulose membrane was incubated with the primary antibody against p-JNK1/2, JNK1/2, p-p38, p38, p-ERK1/2, ERK1/2, IκBa, NF-κB p65, COX-2, iNOS or β-Actin (Abcam, Cambridge, UK). Immunoreactive bands were detected by incubating with horseradish peroxidase-conjugated secondary antibodies, and visualised using enhanced chemiluminescence reagents (Bio-Rad, Hercules, CA).
# (§2) Figure 6. […] Cell viability was evaluated using the MTT assay. NO production was measured using nitrite and nitrate assay. iNOS and COX-2 expression were detected by Western blot. (A) Cell viability assay; (B) Quantitative analysis of NO productions; (C) Quantitative analysis of iNOS expressions, (D) Quantitative analysis of COX-2 expressions. β-actin was used as loading control.
# [3] = tested on: COX-2 expression in RAW264.7 cells; test: Western blot of LPS-induced COX-2 expression; assay type: cell-based, Murine; details: RAW264.7, LPS 200 ng/mL 24 h
# Procedure: as §1, §2
# [4] = tested on: JNK phosphorylation in RAW264.7 cells; test: Western blot of LPS-induced JNK phosphorylation; assay type: cell-based, Murine; details: RAW264.7, 5, 10, 20 μM, LPS 200 ng/mL
# Procedure: as §1
# Figure 7. Compound 6n inhibited LPS-induced MAPK-signalling activation in RAW264.7 cells. RAW264.7 cells were co-incubated with 6n (5, 10, 20 μM) and LPS (200 ng/mL) for 30 min. The levels of p38, JNK, ERK1/2 and their phosphorylated forms were analysed using western blot.
# p38α MAPK, sequence (Q16539 whole entry): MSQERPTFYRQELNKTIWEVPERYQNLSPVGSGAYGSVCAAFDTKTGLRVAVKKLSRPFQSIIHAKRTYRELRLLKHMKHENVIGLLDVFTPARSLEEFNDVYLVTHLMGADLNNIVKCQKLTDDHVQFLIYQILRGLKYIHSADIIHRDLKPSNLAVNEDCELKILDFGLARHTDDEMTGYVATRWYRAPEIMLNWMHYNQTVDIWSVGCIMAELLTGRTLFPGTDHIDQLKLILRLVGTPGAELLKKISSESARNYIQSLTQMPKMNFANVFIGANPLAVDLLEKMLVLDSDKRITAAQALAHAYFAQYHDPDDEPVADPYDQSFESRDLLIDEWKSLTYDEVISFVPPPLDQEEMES
structure (smiles),measurement,setting,value
"COc1ccccc1CN1CCN(C(=O)c2ccccc2C(C)=O)CC1 [Compound 6n, 1–(2-(4–(2-Methoxybenzyl)piperazine-1-carbonyl)phenyl)ethan-1-one]",IC50,p38α MAPK,1.95 ± 0.13 µM
same,IC50,COX-1,12.6 ± 0.79 µM
same,cytotoxicity,RAW 264.7 cells,no significant toxicity
same,LPS-induced NO production,[1],reduced LPS-induced NO production in a dose-dependent manner
same,LPS-induced expression of iNOS,[2],dose-dependent decrease
same,LPS-induced expression of COX-2,[3],dose-dependent decrease
same,phosphorylation of JNK,[4],no obvious effect
